Experimental data published in ChEMBL document CHEMBL1201862, “PubChem BioAssay data set” (2004).
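Test compounds were applied to cells in 96-well plates for 48 hours at 5 doses. Here, GI50 denotes the concentration required for 50% inhibition of growth.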 The source made the active and inactive calls. Rule as the data show it: active = GI50 up to about 1.1 µM and inactive = higher.

Key:
Experiment in all cases: DTP human tumour cell line panel, 48 h
[1] = system: NCI/ADR-RES
[2] = system: SK-OV-3
[3] = system: SF-268
[4] = system: DU-145
[5] = system: TK-10
[6] = system: A549
[7] = system: SF-539
[8] = system: SK-MEL-5
[9] = system: HOP-92
[10] = system: K562
[11] = system: MDA-N
[12] = system: CCRF-CEM
[13] = system: SW-620
[14] = system: HCC 2998
[15] = system: BT-549
[16] = system: SK-MEL-28
[17] = system: NCI-H522
[18] = system: UO-31
[19] = system: ACHN
[20] = system: Malme-3M

Measured: GI50

O=P(O)(O)c1ccccc1Oc1ccccc1
inactive: [1] > 100 µM | [2] > 100 µM | [3] > 100 µM | [4] > 100 µM | [5] > 100 µM | [6] > 100 µM | [7] > 100 µM | [8] > 100 µM | [9] > 100 µM | [10] > 100 µM | [11] > 100 µM | [12] > 100 µM | [13] > 100 µM | [14] > 100 µM | [15] > 100 µM | [16] > 100 µM | [17] > 100 µM | [18] > 100 µM | [19] > 100 µM

O=C1Nc2ccccc2C(=O)/C1=C/NC(=S)NC1CCCCC1
inactive: [1] > 100 µM | [2] > 100 µM | [3] > 100 µM | [4] > 100 µM | [5] > 100 µM | [6] > 100 µM | [7] > 100 µM | [8] > 100 µM | [9] > 100 µM | [10] > 100 µM | [11] > 100 µM | [12] > 100 µM | [13] > 100 µM | [14] > 100 µM | [15] > 100 µM | [17] > 100 µM | [18] > 100 µM | [19] > 100 µM

[N-]=[N+]=Nc1nc2ccccc2c(N=[N+]=[N-])c1Cl
inactive: [1] > 100 µM | [2] 92 µM | [3] > 100 µM | [4] > 100 µM | [5] > 100 µM | [6] > 100 µM | [7] 96.8 µM | [8] > 100 µM | [9] 30.3 µM | [10] > 100 µM | [11] > 100 µM | [12] > 100 µM | [13] > 100 µM | [14] > 100 µM | [15] 28.6 µM | [16] > 100 µM | [18] > 100 µM | [19] > 100 µM | [20] > 100 µM

C#CCOC(=O)C(N)CCCNC(=N)N (stereo unspecified)
inactive: [1] > 100 µM | [3] > 100 µM | [4] > 100 µM | [5] > 100 µM | [6] > 100 µM | [7] > 100 µM | [8] > 100 µM | [9] > 100 µM | [11] > 100 µM | [12] > 100 µM | [13] > 100 µM | [14] > 100 µM | [15] > 100 µM | [16] > 100 µM | [17] > 100 µM | [18] > 100 µM | [19] > 100 µM | [20] > 100 µM

Cc1nc(N)sc1C(=O)Nc1nc[nH]n1
inactive: [1] > 100 µM | [2] > 100 µM | [3] > 100 µM | [4] > 100 µM | [5] > 100 µM | [6] > 100 µM | [7] > 100 µM | [8] > 100 µM | [9] > 100 µM | [10] > 100 µM | [11] > 100 µM | [13] > 100 µM | [14] > 100 µM | [15] > 100 µM | [16] > 100 µM | [17] > 100 µM | [18] > 100 µM | [19] > 100 µM

Fc1ccccc1C1SCC2=Nc3ccccc3CN21 (stereo unspecified)
inactive: [1] > 100 µM | [2] > 100 µM | [3] 54.1 µM | [4] > 100 µM | [5] > 100 µM | [6] > 100 µM | [7] 94.8 µM | [8] 89.7 µM | [9] > 100 µM | [10] > 100 µM | [11] > 100 µM | [12] > 100 µM | [13] > 100 µM | [14] > 100 µM | [15] > 100 µM | [16] > 100 µM | [18] > 100 µM | [19] > 100 µM

c1ccc(-c2csc3c2-n2cccc2C3N2CCCC2)cc1 (stereo unspecified)
inactive: [1] > 100 µM | [3] 13.9 µM | [4] 95.3 µM | [5] 27 µM | [6] 26.4 µM | [7] 36.4 µM | [8] 4.84 µM | [9] 21 µM | [10] 22.6 µM | [11] 34.4 µM | [12] 70.1 µM | [13] 44.2 µM | [14] 26.1 µM | [15] 3.3 µM | [16] 24.7 µM | [17] 13.3 µM | [18] > 100 µM | [19] > 100 µM | [20] 23.9 µM

CCCNC(=O)N1CC(CN2CCN(c3ccccc3)CC2)O/C1=N/C(=O)Nc1ccccc1 (stereo unspecified)
inactive: [1] 50.6 µM | [2] > 100 µM | [3] > 100 µM | [4] 57.9 µM | [5] 82.4 µM | [6] 63.4 µM | [8] 40.8 µM | [9] 89.3 µM | [10] > 100 µM | [11] > 100 µM | [13] > 100 µM | [14] > 100 µM | [15] > 100 µM | [16] > 100 µM | [17] 40.7 µM | [18] 30.5 µM | [19] > 100 µM | [20] 97.1 µM

O=S1(=O)OCCOS(=O)(=O)C1S(=O)(=O)c1ccc2ccccc2c1
inactive: [1] > 100 µM | [4] > 100 µM | [5] > 100 µM | [6] > 100 µM | [8] > 100 µM | [9] > 100 µM | [10] > 100 µM | [11] > 100 µM | [12] > 100 µM | [13] > 100 µM | [14] > 100 µM | [15] > 100 µM | [16] > 100 µM | [18] > 100 µM | [19] > 100 µM | [20] > 100 µM

Oc1ccc(-c2nc3cc(F)ccc3s2)cc1
inactive: [1] 20 µM | [2] 25.7 µM | [3] 26.7 µM | [4] 21.8 µM | [5] 34.1 µM | [6] 18.4 µM | [8] 19.5 µM | [9] 21.3 µM | [10] 22.6 µM | [11] 28.4 µM | [12] 43.8 µM | [13] 41.5 µM | [14] 13.5 µM | [15] 20 µM | [16] 21.6 µM | [17] 15.3 µM | [18] 19.3 µM | [19] 20.3 µM | [20] 16.5 µM

COc1c(OC/C=C(\C)CCC=C(C)C)ccc2ccc(=O)oc12 [COLLININ]
inactive: [1] 95.9 µM | [2] > 100 µM | [3] 96.8 µM | [4] > 100 µM | [5] > 100 µM | [6] > 100 µM | [7] > 100 µM | [8] 48.1 µM | [9] 77.4 µM | [10] > 100 µM | [11] > 100 µM | [12] > 100 µM | [13] > 100 µM | [14] > 100 µM | [15] 53.3 µM | [16] > 100 µM | [17] > 100 µM | [18] > 100 µM | [19] > 100 µM
